# Source: PMC3527451, “A Pilot Randomized, Placebo Controlled, Double Blind Phase I Trial of the Novel SIRT1 Activator SRT2104 in Elderly Volunteers” (PLoS ONE, 2012)
# Entries after “also recorded” stand apart in the source; their conditions may differ. Read-outs that look alike come from different tables or passages of the source.
# Columns and labels:
# rats and dogs = system: rats and dogs; design: method as in ref 17, 18; SRT2104 Investigator's Brochure; settings: acute safety pharmacology, doses up to 2.0 g/kg; SRT2104 Investigator's Brochure; cited from earlier work
# DIO mice and ob/ob mice = settings: cited from earlier work
# CYP2C19 = settings: human liver microsomes; cited from earlier work
# rat = system: rat; design: method as in SRT2104 Investigator's Brochure; settings: ref SRT2104 Investigator's Brochure, cited from earlier work; for NOAEL: 28 days
# [1] = system: elderly male and female volunteers; assay: MRI of subcutaneous and visceral adipose tissue; assay type: in vivo, human; settings: active treatment relative to placebo
# Protocol: Magnetic Resonance Imaging (MRI) was also carried out on a clinical Siemens 3T Tim Trio (Siemens Healthcare, Erlangen, Germany). The torso was imaged using the 6-channel spine array and two 4-channel body array coils. The data were acquired using a 3D spoiled gradient echo sequence with partial Fourier acquisitions (VIBE). The imaging volume consisted of contiguous 3D slabs (voxel size of 1.4×1.4×5 mm3) acquired in a single 15 s end-expiration breath-hold (repetition time = 7 ms; echo times TEs = 2.45, 3.67 ms; flip angle = 10°; 450 mm field-of-view; GRAPPA factor 2). […] Fat-only images in the abdomen were manually segmented into intra-abdominal adipose tissue (IAT) and abdominal subcutaneous adipose tissue (SAT). The abdominal area was defined by using anatomical landmarks (top of the femoral heads to the bottom of the right lung). All images were anonymized and blinded to time point, but not to subject in order to facilitate matching anatomical landmarks, and sent to a third party (Vardis Group Inc, London), who derived the adipose tissue volumes using Slice-O-Matic (Tomovision, Montreal, Canada) software. Analysis of compartmental fat distribution was performed for subcutaneous adipose tissue (SAT), visceral adipose tissue (VAT), and the ratio of SAT:VAT, using an ANOVA model with treatment group as a factor.
# [2] = once daily oral administration, ref SRT2104 Investigator's Brochure
smiles,measurement,setting,value
Cc1nc(-c2cccnc2)sc1C(=O)Nc1ccccc1-c1cn2c(CN3CCOCC3)csc2n1 [SRT2104],"central nervous system, cardiovascular system and pulmonary effects",rats and dogs,"no central nervous system (CNS), cardiovascular system (CVS) or pulmonary effects; also recorded: not associated with adverse central nervous system, cardiovascular system, or pulmonary effects"
same,"cholesterol, LDL and triglycerides in preclinical models of dyslipidemia, diabetes and obesity",DIO mice and ob/ob mice; e.g. DIO and Lep ob/ob obese mice,"lower cholesterol, LDL and triglycerides"
same,glucose and insulin levels,"DIO mice and ob/ob mice; once daily oral 0.1 g/kg for 7 days or more, ref SRT2104 Investigator's Brochure",reduces glucose and insulin levels
same,body weight,DIO mice and ob/ob mice; [2],No effect on body weight
same,fasting blood glucose and fed insulin,DIO mice and ob/ob mice; [2],lowered
same,response to a glucose tolerance test,DIO mice and ob/ob mice; [2],enhanced the response to a glucose tolerance test
same,adverse reactions in mouse models of diabetes,"DIO mice and ob/ob mice; up to 0.3 g/kg orally once daily for 28 days, ref SRT2104 Investigator's Brochure",No adverse reactions
same,inhibition of CYP2C19,CYP2C19,not an inhibitor; also recorded: does not inhibit
same,"vacuolation of pancreatic acinar cells, animals affected","rat; female rat, Day 29, not seen after 4 weeks recovery",3/10
same,NOAEL,rat; female rats,1000 mg/kg
same,NOAEL,"rat; male rats, highest dose tested",2000 mg/kg
same,tolerability,"rat; rat, up to 2.0 g/kg for 28 days",well tolerated at all doses
same,subcutaneous (SAT) and visceral (VAT) adipose tissue volumes and VAT:SAT ratio,[1],No consistent changes from baseline
